Like-named read-outs stand apart in the source and are kept apart here.

Data set [1] deals with T. cruzi epimastigotes NINOA strain. The data set is described as follows: Anti-Trypanosoma cruzi activity, epimastigotes NINOA strain (MTT). Format: cell-based. Particulars: for IC50: 48 h, read-out: T. cruzi IC50 NINOA. The protocol: (§1) Epimastigotes from A1 and the NINOA strains were used to evaluate the trypanocidal activity. Both strains were maintained in liver infusion tryptose (LIT) medium, supplemented with 10% heat-inactivated FBS and 100 U/mL of penicillin plus 100 μg/mL of streptomycin. They were preserved by transferring 1 × 10^6 parasites/mL into a new culture medium every week. […] All compounds were initially prepared at 10 mg/mL, using dimethyl sulfoxide (DMSO) 0.2% as diluent. […] T. cruzi epimastigotes (1 × 10^6/well) were cultured in 96-well microliter plates and incubated for 48 h at 28 °C with the drugs at different concentrations in a final volume of 200 μL. DMSO 0.2% was included as a negative control. […] All assays were carried out in triplicate. The IC50 values were determined by Probit analysis.

Data set [2] relates to T. cruzi epimastigotes A1 strain. Briefly: Anti-Trypanosoma cruzi activity, epimastigotes A1 strain (MTT). Format: cell-based. Particulars: for IC50: 48 h. As to the method:
as §1

The subject of data set [3] is L. mexicana promastigotes MNYC/BZ/62/M379 (M379) strain. Briefly: Anti-Leishmania mexicana activity, promastigotes M379 reference strain (MTT). Format: cell-based. Particulars: for IC50: 48 h, read-out: L. mexicana IC50 M379. The protocol: (§2) The IC50 was determined using the Probit statistical tool. Each sample was assayed in triplicate in three independent experiments.

Data set [4] concerns L. mexicana promastigotes FCQEPS native isolate. The data set is described as follows: Anti-Leishmania mexicana activity, promastigotes FCQEPS native isolate (MTT). As to conditions: 48 h, read-out: L. mexicana IC50 FCQEPS. Format: cell-based. The protocol:
as §2

The nature of data set [5]: Cytotoxic analysis against J774.2 macrophages (MTT). Particulars: mouse. The protocol:
(§3) The assay was performed on mouse macrophages from the J774.2 cell line that were cultured in RPMI medium supplemented with 10% SFB, […] penicillin, […] streptomycin, and glutamine (2 mM) at 37 °C and in a 5% CO2 atmosphere. The medium was replaced at 2–3-day intervals. […] Cells in the presence of the maximum concentration of DMSO (0.2%) were included as a negative control; the metabolic activity of the cells was determined following the MTT method. The percentage of cell viability was calculated, and the half-maximal cytotoxic concentration (CC50) was determined by Probit analysis. Three independent assays were performed in triplicate each.

For data set [6], the system named is J774.2 macrophage cell line. Described as above. Particulars: for cytotoxicity (in words): J774.2 macrophages. The protocol: as §3
Data set [7] deals with Tulahuén strain of T. cruzi. Set-up: method as in PMID 35698116. As to conditions: in words; cited from earlier work.
A further data set relates to T. cruzi. As to conditions: cited from earlier work.
Setting [8] is: Trypanosoma cruzi, read-out: T. cruzi IC50 A1, epimastigotes, A1 strain, 48 h, MTT.
The mark [9] stands for this setting: Trypanosoma cruzi, epimastigotes, NINOA strain, MTT.
Setting [10] is: Trypanosoma cruzi, epimastigotes, A1 strain, MTT, read-out: T. cruzi IC50 A1.
Where [11] appears, read: Leishmania mexicana, promastigotes, M379 strain, MTT.
The mark [12] stands for this setting: Leishmania mexicana, promastigotes, FCQEPS native isolate, MTT.
Setting [13] is: promastigotes, FCQEPS native isolate, MTT.

Broadly, the IC50 is the concentration needed to halve the response being measured. Usually CC50 stands for the concentration at which the toxic effect on the cells reaches its halfway point. Turning to `CC(C)=CCC/C(C)=C\CO` [Compound 13, nerol], the IC50 in data set [1] (Trypanosoma cruzi) is 58.3 ± 0.3 µM; in data set [2] (setting [8]), 125 µM; in data set [2] (read-out: T. cruzi IC50 A1, epimastigotes, A1 strain, MTT), 65.7 ± 3.1 µM; in data set [3] (Leishmania mexicana), 106 ± 6 µM; in data set [4] (Leishmania mexicana), over 200 µM. In data set [5], the CC50 at 48 h is over 200 µM.

`OC1CCCC1` [Compound 18, cyclopentyl alcohol]: the IC50 in data set [1] (setting [9]) was over 200 µM; in data set [2] (setting [10]), 10.83 ± 0.1 µM; in data set [3] (setting [11]) it was 5.48 ± 0.1 µM; in data set [4] (setting [12]) it was 125.4 ± 0.2 µM. The compound also had a CC50 at 48 h in data set [5] (J774.2 macrophage cells) of 24.4 ± 3.2 µM.

With `O=C(Cn1ccnc1[N+](=O)[O-])NCc1ccccc1` [Bzn, Benznidazole, reference compound], the 50% inhibitory concentration (IC50) was 39.08 ± 0.1 µM in data set [1] (setting [9]) and 30.3 ± 0.03 µM in data set [2] (setting [10]).

As for `C=C(C)[C@H]1CC=C(CO)CC1` [Compound 15], the IC50 was over 200 µM in data set [1] (setting [9]), over 200 µM in data set [2] (setting [10]), 34.4 ± 2.8 µM in data set [3] (setting [11]) and over 200 µM in data set [4] (setting [12]). For the same compound, the “trypanocidal activity A1 strain (in words)” value in data set [2] (epimastigotes, A1 strain) was “no biological activity”. The same compound displayed a half-maximal cytotoxic concentration (CC50) at 48 h in data set [5] (J774.2 macrophage cells) of over 200 µM.

As to `OCC=Cc1ccccc1` [Compound 9, cinnamyl alcohol], the 50% inhibitory concentration (IC50) in data set [1] (setting [9]) was over 200 µM; in data set [2] (setting [10]), 22.12 ± 0.2 µM; in data set [3] (setting [11]), 12.1 ± 0.2 µM; in data set [4] (setting [12]), 29.06 ± 0.1 µM. For the same compound, in data set [1] (epimastigotes, NINOA strain), the “trypanocidal activity NINOA strain (in words)” value is recorded as “no biological activity”. The CC50 at 48 h in data set [5] (J774.2 macrophage cells) stood at 47.35 ± 0.1 µM. Moreover, the “cytotoxicity (in words)” value in data set [6] is “high cytotoxicity”.

In the case of `Cc1ccc(CO)cc1` [Compound 2, 4-methylbenzyl alcohol], the IC50 in data set [1] (setting [9]) is 51.85 ± 0.01 µM; in data set [2] (setting [10]) it was 50.4 ± 1.8 µM; in data set [3] (setting [11]) it was over 200 µM; in data set [4] (setting [12]), over 200 µM. In data set [5] (J774.2 macrophage cells), this compound gave a CC50 at 48 h of over 200 µM.

As for `CC1=CC[C@@H](C(C)(C)O)CC1` [Compound 16, α-terpineol], the IC50 is over 200 µM in data set [1] (setting [9]), 14 ± 0.2 µM in data set [2] (setting [10]), 14 ± 0.2 µM in data set [3] (setting [11]) and 75.57 ± 0.03 µM in data set [4] (setting [12]). In data set [5], this compound came in with a CC50 at 48 h of 63.4 ± 0.9 µM.

On to `OCCc1ccccc1` [Compound 7, phenethyl alcohol], for which the IC50 was 48.24 ± 0.3 µM in data set [1] (setting [9]), over 200 µM in data set [2] (setting [10]), 21.7 ± 1.7 µM in data set [3] (setting [11]) and 42.24 ± 0.1 µM in data set [4] (setting [12]). In data set [5] (J774.2 macrophage cells), this compound came in with a CC50 at 48 h of 89.6 µM. The “cytotoxicity (in words)” value in data set [6] is on record as “high cytotoxicity”.

`CC(C)=CCCC(C)CCO` (stereo not drawn) [Compound 11, β-citronellol]: the half-inhibitory concentration (IC50) was 53.6 ± 3.3 µM in data set [1] (setting [9]), 21.54 ± 0.2 µM in data set [2] (setting [10]), 71 ± 1 µM in data set [3] (setting [11]) and over 200 µM in data set [4] (setting [12]). Also, the 50% cytotoxic concentration (CC50) at 48 h in data set [5] (J774.2 macrophage cells) is over 200 µM.

Take `CC(C)[C@H]1CC[C@H](C)C[C@@H]1O` [Compound 14, l-(-)-menthol]: the IC50 in data set [1] (setting [9]) is 24.5 ± 0.7 µM; in data set [2] (setting [10]), over 200 µM; in data set [3] (setting [11]), 81.5 ± 4.7 µM; in data set [4] (setting [12]) it was over 200 µM. Besides, the “trypanocidal activity A1 strain (in words)” value in data set [2] (epimastigotes, A1 strain) is given as “no biological activity”. This compound gave a CC50 at 48 h in data set [5] (J774.2 macrophage cells) of over 200 µM. Moreover, the “trypanocidal activity against the Tulahuén strain” value in data set [7] is on record as “null trypanocidal activity”.

For `CC1CCC(C(C)C)C(O)C1` (racemic) [dl-menthol], the IC50 in the data set with T. cruzi (dl-menthol) was 173 µM.

Take `Cc1ccccc1CO` [Compound 3, 2-methylbenzyl alcohol]: the IC50 in data set [1] (setting [9]) was over 200 µM; in data set [2] (setting [10]), over 200 µM; in data set [3] (setting [11]), 14.2 ± 0.2 µM. Besides, in data set [5] (J774.2 macrophage cells), half-maximal cytotoxicity (CC50 at 48 h) was put at 64.2 ± 0.2 µM. In addition, the “cytotoxicity (in words)” value in data set [6] is listed as “high cytotoxicity”.

For the compound `CNC[C@H](O)[C@@H](O)[C@H](O)[C@H](O)CO.[O]=[Sb](=[O])[OH]` [Glu, Glucantime, reference compound], the IC50 in data set [3] (promastigotes, M379 strain, MTT) is over 200 µM; in data set [4] (setting [13]), 134 ± 4.3 µM. The CC50 in data set [6] (read-out: Cytotoxicity CC50 J774.2, mouse macrophages J774.2, 48 h, MTT) is over 273 µM.

On to `COc1ccc(CCO)cc1` [Compound 8, 4-methoxyphenethyl alcohol], for which the concentration for half-maximal inhibition (IC50) is over 200 µM in data set [1] (setting [9]), over 200 µM in data set [2] (setting [10]), 52.08 ± 0.5 µM in data set [3] (setting [11]) and over 200 µM in data set [4] (setting [12]). Moreover, in data set [1] (epimastigotes, NINOA strain), the “trypanocidal activity NINOA strain (in words)” value is given as “no biological activity”. Besides, the CC50 at 48 h in data set [5] (J774.2 macrophage cells) was over 200 µM.

Regarding `CC(C)=CCO` [Compound 10, prenol], the IC50 was 27.3 ± 1 µM in data set [1] (setting [9]), over 200 µM in data set [2] (setting [10]), over 200 µM in data set [3] (setting [11]) and over 200 µM in data set [4] (setting [12]). Moreover, in data set [3] (promastigotes, M379 strain), the “leishmanicidal activity M379 strain (in words)” value was “did not have leishmanicidal activity”. In data set [5] (J774.2 macrophage cells), the CC50 at 48 h was over 200 µM.

Consider `OCc1ccccc1` [Compound 1, benzyl alcohol], for which the IC50 was over 200 µM in data set [1] (setting [9]), 62.28 ± 0.2 µM in data set [2] (setting [10]), over 200 µM in data set [3] (setting [11]) and 104 ± 0.3 µM in data set [4] (setting [12]). For the same compound, in data set [5] (J774.2 macrophage cells), the CC50 at 48 h was found to be 26.5 ± 2.1 µM.

As for `CC1CS(=O)(=O)CCN1/N=C/c1ccc([N+](=O)[O-])o1` (stereo not shown) [Nfx, Nifurtimox, reference compound], the IC50 amounted to 19.3 ± 0.1 µM in data set [1] (setting [9]) and 7.09 ± 0.1 µM in data set [2] (setting [10]).

As to `OCc1ccc2ccccc2c1` [Compound 5, 2-naphtalenemethanol], the IC50 was 119 µM in data set [1] (setting [9]); 125 ± 3.2 µM in data set [1] (epimastigotes, NINOA strain, MTT); over 200 µM in data set [2] (setting [10]); 40.1 ± 4.7 µM in data set [3] (setting [11]); 125 µM in data set [4] (setting [12]); over 200 µM in data set [4] (setting [13]). In addition, in data set [5] (J774.2 macrophage cells), the CC50 at 48 h was over 200 µM.

Take `Oc1ccc(/C=C/c2cc(O)cc(O)c2)cc1` [resveratrol]: the IC50 with T. cruzi (resveratrol) was 40 µM.

As to `CC(C)=CCC/C(C)=C/CO` [Compound 12, geraniol], the IC50 was 41 ± 1.2 µM in data set [1] (setting [9]), 125 ± 5.5 µM in data set [2] (setting [10]), 57 ± 5.1 µM in data set [3] (setting [11]) and over 200 µM in data set [4] (setting [12]). The same compound had a CC50 at 48 h in data set [5] of over 200 µM.

For `OCc1ccc2c(c1)OCO2` [Compound 6, piperonyl alcohol], the IC50 in data set [1] (Trypanosoma cruzi) is over 200 µM; in data set [2] (setting [8]) it was over 200 µM; in data set [3] (Leishmania mexicana), 23.61 ± 0.2 µM; in data set [4] (Leishmania mexicana) it was 49.11 ± 0.1 µM. Besides, the CC50 at 48 h in data set [5] is 62.2 ± 3.2 µM.

(Values after article PMC12388504, “Antiparasitic Effect of Polyphenols and Terpenes from Natural Products Against Trypanosoma cruzi and Leishmania mexicana” (Metabolites, 2025).)
